According to patent US20260293937A1, “SHRIMP FEED AND METHODS OF USE THEREOF” (Organicin Scientific, Inc., priority 2023, published 2026):
Where “and” joins values, the source holds several entries; their conditions need not be identical. Equal entries are not always repeated. No end group written: not given here.

How the values were obtained:
[1] = tested on: Vibrio parahaemolyticus (strain 13-028A/3); experiment: AHPND immersion challenge, feed-and-survival assay in shrimp; format: in vivo, Penaeus (Litopenaeus) vannamei; details: for Group Survival: positive control 35%; for % Survival: per tank; for Survivors: per tank of 20 shrimp
Procedure: This Example describes the materials, methods, and results of a feed-and-survival assay in shrimp treated with a composition of the disclosure, including the bacteriocin Nisin and shrimp feed.
Specific Pathogen Free (SPF) P. vannamei at an average weight of 1 g to 2 g, were obtained from a commercial shrimp producer and reared. A total of 300 shrimp were transferred into 15 90 L glass aquaria, each aquarium stocked with 20 shrimp.
Shrimp feed diets was prepared at X, 10X, and 100X (0.84 mg/g, 8.4 mg/g, and 84 mg/g Nisin, respectively) estimated concentrations of the bacteriocin Nisin. The bacteriocin additive was combined with a 40% protein commercial shrimp premix (Rangen Inc., Buhl, Idaho), carboxymethyl cellulose at a 3% inclusion rate, and up to 40% w/v water. Exemplary components of a typical 35% protein shrimp diet were wheat flour (35%), soybean meal (20%) and fishmeal (25%). The mixture was then cold-extruded through a meat grinder to produce a 3 mm diameter size pellet strand. The resulting feed strands were dried overnight at 40° C. and broken into appropriately-sized pellets. A total of 100 g of each diet was use for this study. In all three experimental groups a minimum of 9.324 g of Nisin was used to produce the respective feed conditions.
The negative and positive control tanks were fed Rangen's commercially pelleted shrimp diet without additive.
The commercially prepared shrimp diet from juvenile Penaeus (Litopenaeus) vannameia was prepared with a bacteriocin additive at three concentrations (0.84 mg/g, 8.4 mg/g, and 84 mg/g Nisin). Experimental shrimp were orally exposed for […] Vibrio parahaemolyticus, an agent which causes Acute Hepatopancreatic Necrosis Disease (AHPND) to determine if the feed additives (provided during and after exposure) would affect survival when compared to the group that was fed an untreated diet.
All tanks were covered to reduce the risk of mortality due to shrimp jumping out. Each group of tanks was outfitted with its own equipment (e.g., nets and buckets). Each tank contained sufficient aeration and was outfitted with a pre-conditioned biological filter. Water quality tests to characterize temperature, nitrite and total ammonia were performed on tanks weekly.
Nine tanks (three per Nisin concentration) were used to house shrimp that were fed the bacteriocin-containing diet, while three tanks were used to house shrimp fed the control diet without additive. In both cases, the shrimp were fed their respective diet, followed by the AHPND challenge. The challenge was provided on 7 days at 5% of body weight per tank. Three additional tanks were used as a negative control for environmental conditions and were used to house shrimp fed the control diet and not challenged with AHPND. Additionally, the negative control tanks were be fed before the AHPND challenged tanks to reduce the risk of cross contamination.
Each tank scheduled for the AHPND challenge was subjected to an immersion challenge. Tryptic Soy Broth +2% (TSB+) sodium chloride was inoculated with a consistently virulent strain of Vibrio parahaemolyticus (strain 13-028A/3), incubated for 18 hours, and added directly into each challenge tank. The bacterial suspension was added into each tank to achieve the bacterial density measured by optical density absorbance (OD600 nm) at approximately […].
Two animals were preserved in Davidson's AFA fixative prior to the start of the study to document the SPF health status of the population by histology.
All tanks were checked twice a day for dead or moribund animals. During the study, any mortalities were removed from the tank and frozen at −20° C. Up to two moribund animals from each diet group, including the positive control tanks, were preserved in Davidson's AFA fixative and processed for routine histology to confirm an AHPND infection (up to 12 P. vannamei processed for histology during the challenge period). […]

pathogenic Vibrio = experiment: Minimum inhibitory concentration, all Vibrio species; format: cell-based; details: all species of Vibrio
Procedure: This Example describes the materials and methods, and results of a serial dilution experiment to determine the Minimum Inhibitory Concentration (MIC) of Nisin in reducing a concentration of pathogenic Vibrio.
On the day before the experiment, Vibrio stock were prepared by sterilizing an inoculation loop, cooling the product, and extracting cells. Such extract was incubated at 37° C. for 16 to 20 hours. The density of cells was normalized to a cell density of approximately 10^7 to 10^8 CFU/mL and 100 uL lawns were prepared at a cell density of about 10^6 to 10^7 CFU using sterile glass beads. Four lawns were made so that each Nisin dilution could be tested on two identical plates.
5 μL of two-fold dilutions (See Table 1, below) of Nisin (Immucell; 99% pure), or shrimp feed (without Nisin), citric acid, or DH20 negative controls, respectively, were spotted on the plates, which were incubated at 37° C. for 16 to 20 hours. The minimum inhibitory concentration was determined. In particular, plates were characterized based upon the presence (0) or absence (1) of Vibrio growth.

Nisin: Nisin (Immucell; 99% pure) in Example 1; bacteriocin Nisin in shrimp feed at 0.84, 8.4 and 84 mg/g in Example 2 (ITSISLCTPGCKTGALMGCNMKTATCHCSIHVSK; cysteine pairing not given here; also: lantibiotic, modifications not placed; UniProt P13068 24-57, looked up)
cumulative survival vs positive control group ([1]; 0.84 mg/g Nisin in feed): statistically significant difference in cumulative survival | deaths pre-challenge ([1]; 0.84 mg/g Nisin in feed): 4 | increase in relative survival of AHPND-challenged shrimp ([1]; 0.84 mg/g Nisin in feed vs positive controls, statistically significant): 265% | survival of AHPND-challenged shrimp ([1]; 0.84 mg/g Nisin in feed, pre-challenge deaths excluded, positive controls 35%): 100% | survival rate vs positive controls ([1]; 8.4 mg/g Nisin in feed): significantly higher than the positive controls | deaths ([1]; 84 mg/g Nisin in feed): not a single death | survival vs positive controls ([1]; 84 mg/g Nisin in feed): statistically significant as compared to the positive controls | Mortalities by Day ([1]; 1X (0.84 mg/g Nisin in feed), day 0, per tank): 0 | Mortalities by Day ([1]; 1X (0.84 mg/g Nisin in feed), day 2, per tank): 0 | Mortalities by Day ([1]; 1X (0.84 mg/g Nisin in feed), day 3, per tank): 0 | Mortalities by Day ([1]; 1X (0.84 mg/g Nisin in feed), day 4, per tank): 0 | Mortalities by Day ([1]; 1X (0.84 mg/g Nisin in feed), day 5, per tank): 0 | Mortalities by Day ([1]; 1X (0.84 mg/g Nisin in feed), day 6, per tank): 0 | Mortalities by Day ([1]; 1X (0.84 mg/g Nisin in feed), day 7, per tank): 0 | Mortalities by Day ([1]; 1X (0.84 mg/g Nisin in feed), day 8, per tank): 0 | Mortalities by Day ([1]; 1X (0.84 mg/g Nisin in feed), day 9, per tank): 0 | Mortalities by Day ([1]; 1X (0.84 mg/g Nisin in feed), day 10, per tank): 0 | Mortalities by Day ([1]; 1X (0.84 mg/g Nisin in feed), day 11, per tank): 0 | Mortalities by Day ([1]; 1X (0.84 mg/g Nisin in feed), day 12, per tank): 0 | Mortalities by Day ([1]; 1X (0.84 mg/g Nisin in feed), day 13, per tank): 0 | Mortalities by Day ([1]; 1X (0.84 mg/g Nisin in feed), day 14, per tank): 0 | Mortalities by Day ([1]; 1X (0.84 mg/g Nisin in feed), day 15, per tank): 0 | Mortalities by Day ([1]; 1X (0.84 mg/g Nisin in feed), day 16, per tank): 0 | Group Survival ([1]; 1X (0.84 mg/g Nisin in feed), overall): 93% | % Survival ([1]; 1X (0.84 mg/g Nisin in feed)): 95% and 90% | Survivors ([1]; 1X (0.84 mg/g Nisin in feed)): 19 and 18 | Mortalities by Day ([1]; 10X (8.4 mg/g Nisin in feed), day 0, per tank): 0 | Mortalities by Day ([1]; 10X (8.4 mg/g Nisin in feed), day 1, per tank): 0 | Mortalities by Day ([1]; 10X (8.4 mg/g Nisin in feed), day 2, per tank): 0 | Mortalities by Day ([1]; 10X (8.4 mg/g Nisin in feed), day 3, per tank): 0 | Mortalities by Day ([1]; 10X (8.4 mg/g Nisin in feed), day 4, per tank): 0 | Mortalities by Day ([1]; 10X (8.4 mg/g Nisin in feed), day 5, per tank): 0 | Mortalities by Day ([1]; 10X (8.4 mg/g Nisin in feed), day 6, per tank): 0 | Mortalities by Day ([1]; 10X (8.4 mg/g Nisin in feed), day 7, per tank): 0 | Mortalities by Day ([1]; 10X (8.4 mg/g Nisin in feed), day 13, per tank): 0 | Mortalities by Day ([1]; 10X (8.4 mg/g Nisin in feed), day 14, per tank): 0 | Mortalities by Day ([1]; 10X (8.4 mg/g Nisin in feed), day 15, per tank): 0 | Mortalities by Day ([1]; 10X (8.4 mg/g Nisin in feed), day 16, per tank): 0 | % Survival ([1]; 10X (8.4 mg/g Nisin in feed)): 85% and 75% and 45% | Survivors ([1]; 10X (8.4 mg/g Nisin in feed)): 17 and 15 and 9 | Group Survival ([1]; 10X (8.4 mg/g Nisin in feed)): 68% | Mortalities by Day ([1]; 100X (84 mg/g Nisin in feed), day 0, per tank): 0 | Mortalities by Day ([1]; 100X (84 mg/g Nisin in feed), day 1, per tank): 0 | Mortalities by Day ([1]; 100X (84 mg/g Nisin in feed), day 2, per tank): 0 | Mortalities by Day ([1]; 100X (84 mg/g Nisin in feed), day 3, per tank): 0 | Mortalities by Day ([1]; 100X (84 mg/g Nisin in feed), day 4, per tank): 0 | Mortalities by Day ([1]; 100X (84 mg/g Nisin in feed), day 5, per tank): 0 | Mortalities by Day ([1]; 100X (84 mg/g Nisin in feed), day 6, per tank): 0 | Mortalities by Day ([1]; 100X (84 mg/g Nisin in feed), day 7, per tank): 0 | Mortalities by Day ([1]; 100X (84 mg/g Nisin in feed), day 8, per tank): 0 | Mortalities by Day ([1]; 100X (84 mg/g Nisin in feed), day 9, per tank): 0 | Mortalities by Day ([1]; 100X (84 mg/g Nisin in feed), day 10, per tank): 0 | Mortalities by Day ([1]; 100X (84 mg/g Nisin in feed), day 11, per tank): 0 | Mortalities by Day ([1]; 100X (84 mg/g Nisin in feed), day 12, per tank): 0 | Mortalities by Day ([1]; 100X (84 mg/g Nisin in feed), day 13, per tank): 0 | Mortalities by Day ([1]; 100X (84 mg/g Nisin in feed), day 14, per tank): 0 | Mortalities by Day ([1]; 100X (84 mg/g Nisin in feed), day 15, per tank): 0 | Mortalities by Day ([1]; 100X (84 mg/g Nisin in feed), day 16, per tank): 0 | % Survival ([1]; 100X (84 mg/g Nisin in feed)): 100% | Survivors ([1]; 100X (84 mg/g Nisin in feed)): 20 | Group Survival ([1]; 100X (84 mg/g Nisin in feed)): 100% | shrimp survival ([1]; Nisin and shrimp feed, dose as low as 0.84 mg/g): significant increase in shrimp survival | MIC compared with negative control (pathogenic Vibrio): significantly smaller MIC than the negative control
